Experimental data reported in patent publication US8575156B2, “Cyclic inhibitors of 11β-hydroxysteroid dehydrogenase 1” (Vitae Pharmaceuticals, Inc., priority 2007, dated 2013).
Like-named read-outs stand apart in the source and are kept apart here.

Tests used:
[1] = target: T1, 11β-HSD1 (Homo sapiens, UniProt P28845); conditions: 0.1 µM
[2] = target: T1, 11β-HSD1; assay: biochemical; conditions: IC50 Range
[3] = Biological Test Example 1, 100 nM compound
[4] = Biological Test Example 1, microsomes from CHO cells overexpressing human 11β-HSD1
[5] = Biological Test Example 1, 100 nM

T1 sequence (P28845 whole entry): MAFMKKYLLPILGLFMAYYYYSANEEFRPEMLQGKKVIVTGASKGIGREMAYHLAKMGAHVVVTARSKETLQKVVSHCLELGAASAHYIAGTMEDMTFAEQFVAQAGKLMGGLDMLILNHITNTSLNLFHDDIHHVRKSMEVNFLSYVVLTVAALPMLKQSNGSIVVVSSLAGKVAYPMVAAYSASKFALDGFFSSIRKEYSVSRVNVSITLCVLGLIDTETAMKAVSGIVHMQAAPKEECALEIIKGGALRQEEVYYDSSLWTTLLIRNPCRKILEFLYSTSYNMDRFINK

| Average % inhibition at 100 nM [1, 3] [%] | IC50 [2, 4] [µM] | Average % inhibition at 100 nM [1, 5] [%] | SMILES | Average % inhibition at 100 nM [1] [%] | IC50 [2] [µM] |
| --- | --- | --- | --- | --- | --- |
| 94.2 | < 0.1 |  | CC(C)C1(CC(O)CO)CCN([C@@H](C)c2ccc(-c3ccc(F)cc3F)cc2)C(=O)O1 (single isomer, unassigned) [EXAMPLE 223 Isomer 1] |  |  |
| 97.1 | < 0.1 |  | CC(C)C1(CC(O)CO)CCN([C@@H](C)c2ccc(-c3ccc(F)cc3F)cc2)C(=O)O1 (single isomer, unassigned) [EXAMPLE 223 Isomer 2] |  |  |
| 27.8 | > 0.1 |  | CC(C)C1(CC(O)CO)CCN([C@@H](C)c2ccc(-c3ccc(F)cc3F)cc2)C(=O)O1 (single isomer, unassigned) [EXAMPLE 223 Isomer 3] |  |  |
| 52.5 | > 0.1 |  | CC(C)C1(CC(O)CO)CCN([C@@H](C)c2ccc(-c3ccc(F)cc3F)cc2)C(=O)O1 (single isomer, unassigned) [EXAMPLE 223 Isomer 4] |  |  |
| 98.9 | < 0.1 |  | C[C@@H](c1ccc(-c2ccc(F)cc2F)cc1)N1CCC(CCO)(c2cccs2)OC1=O (single isomer, unassigned) [EXAMPLE 233 Isomer 1] |  |  |
| 53.6 | < 0.1 |  | C[C@@H](c1ccc(-c2ccc(F)cc2F)cc1)N1CC[C@](CC(O)CN(C)C)(c2ccc(F)cc2)OC1=O (single isomer, unassigned) [EXAMPLE 273 Isomer 1] |  |  |
| 17.9 | > 0.1 |  | C[C@@H](c1ccc(-c2ccc(F)cc2F)cc1)N1CC[C@](CC(O)CN(C)C)(c2ccc(F)cc2)OC1=O (single isomer, unassigned) [EXAMPLE 273 Isomer 2] |  |  |
| 83.1 | < 0.1 |  | C[C@@H](c1ccc(-c2ccc(F)cc2F)cc1)N1CC[C@](CC(O)CNC(N)=O)(c2ccc(F)cc2)OC1=O (single isomer, unassigned) [EXAMPLE 276 Isomer 1] |  |  |
| 35.4 | > 0.1 |  | C[C@@H](c1ccc(-c2ccc(F)cc2F)cc1)N1CC[C@](CC(O)CNC(N)=O)(c2ccc(F)cc2)OC1=O (single isomer, unassigned) [EXAMPLE 276 Isomer 2] |  |  |
|  |  |  | C[C@@H](c1ccc(-c2ccc(F)cc2)cc1)N1CC[C@](CC(O)CNS(C)(=O)=O)(c2ccc(F)cc2)OC1=O (single isomer, unassigned) [EXAMPLE 277 Isomer 1] | 91.1 | < 0.1 |
| 86.6 | < 0.1 |  | C[C@@H](c1ccc(-c2ccc(F)cc2)cc1)N1CC[C@](CC(O)CN(C)S(C)(=O)=O)(c2ccc(F)cc2)OC1=O (single isomer, unassigned) [EXAMPLE 278 Isomer 1] |  |  |
| 94.1 | < 0.1 |  | COc1ccc([C@H](C)N2CCC(CC(O)CO)(c3ccccc3)OC2=O)cc1 (single isomer, unassigned) [EXAMPLE 286 Isomer 1] |  |  |
| 94.5 | < 0.1 |  | COc1ccc([C@H](C)N2CCC(CC(O)CO)(c3ccccc3)OC2=O)cc1 (single isomer, unassigned) [EXAMPLE 286 Isomer 2] |  |  |
| 70.5 | < 0.1 |  | COc1ccc([C@H](C)N2CCC(CC(O)CO)(c3ccccc3)OC2=O)cc1 (single isomer, unassigned) [EXAMPLE 286 Isomer 3] |  |  |
| 29.3 | > 0.1 |  | COc1ccc([C@H](C)N2CCC(CC(O)CO)(c3ccccc3)OC2=O)cc1 (single isomer, unassigned) [EXAMPLE 286 Isomer 4] |  |  |
|  | < 0.1 | 97.8 | COc1ccc([C@H](C)N2CCC(CCCO)(C(C)C)OC2=O)cc1 (single isomer, unassigned) [EXAMPLE 332 Isomer 1] |  |  |
|  | > 0.1 | 32.2 | COc1ccc([C@H](C)N2CCC(CCCO)(C(C)C)OC2=O)cc1 (single isomer, unassigned) [EXAMPLE 332 Isomer 2] |  |  |
|  | < 0.1 | 96.2 | COc1ccc([C@H](C)N2CCC(CCC(N)=O)(C(C)C)OC2=O)cc1 (single isomer, unassigned) [EXAMPLE 333 Isomer 1] |  |  |
|  | > 0.1 | 9.1 | COc1ccc([C@H](C)N2CCC(CCC(N)=O)(C(C)C)OC2=O)cc1 (single isomer, unassigned) [EXAMPLE 333 Isomer 2] |  |  |
|  | < 0.1 | 96.6 | CC(C)C1(CCC(N)=O)CCN([C@@H](C)c2ccc(Cl)cc2)C(=O)O1 (single isomer, unassigned) [EXAMPLE 334 Isomer 1] |  |  |
|  | > 0.1 | 31.9 | CC(C)C1(CCC(N)=O)CCN([C@@H](C)c2ccc(Cl)cc2)C(=O)O1 (single isomer, unassigned) [EXAMPLE 334 Isomer 2] |  |  |
|  | < 0.1 | 48.2 | C[C@@H](c1ccc(Br)cc1)N1CCC(CCCO)(C(C)(C)C)OC1=O (single isomer, unassigned) [EXAMPLE 335 Isomer 1] |  |  |
|  | < 0.1 | 50.8 | C[C@@H](c1ccc(-c2ccc(F)cc2F)cc1)N1CCC(CCO)(C(C)(C)C)OC1=O (single isomer, unassigned) [EXAMPLE 336 Isomer 1] |  |  |
|  | < 0.1 | 97.5 | C[C@@H](c1ccc(Br)cc1)N1CCC(CCO)(c2ccc(F)cc2F)OC1=O (single isomer, unassigned) [EXAMPLE 365 Isomer 1] |  |  |
